# Test results from US4080466A, “Pharmaceutical compositions containing 4-hydroxyl-1,3-dithiolan-2-ylidene malonates” (Nihon Nohyaku Co., Ltd., priority 1976, dated 1978).
# Legend:
# [1] = tested on: acute liver damage induced by carbon tetrachloride; assay: Protective Effect on Acute Liver Damage associated with Centrilobular Necrosis (carbon tetrachloride); type: in vivo, mice (dd-strain); conditions: 250 mg/kg oral, average of 5 to 6 mice
# Text: Carbon tetrachloride (CCl4) administration induces centrilobular necrosis of the liver associated with loss of diphosphopyridine nucleotide, hepatic glycogen, coenzyme A and increase in neutral fat. Release of several enzymes from the hepatocytes, and increase of enzyme activities in the plasma are recognized as the result of the damage of the liver. A suitable means for evaluating the degree of damage induced by CCl4 or the degree of protection afforded by drugs is to study the plasma glutamic-pyruvic transminase (p-GPT) activity.
# Methods: The test compounds were dissolved or suspended in olive oil and administered orally at the dose of 250 mg/kg to the mice (Four-week-old male mice-dd strain). After 6 hours, CCl4 was administered orally (0.05 ml/kg as olive oil solution). Animals were killed 24 hours after CCl4 administration, and the liver was grossly observed. The plasma was obtained by centrifugation. Activities of p-GPT were determined by the method of Reitman and Frankel and expressed in Karmen units.
# Score for liver damage index was as follows:
# 4 Clearly observable damage
# Each figure indicates average of 5 to 6 mice. Values of p-GPT over 1,000 Karmen unit regarded as 1,000 for calculation of average for convenience.
# [2] = tested on: fatty liver induced by ethionine; assay: Effect on Fatty Liver (ethionine); type: in vivo, mouse (dd-strain); conditions: 250 mg/kg oral, 24 h, 10 animals
# Text: But, the fatty liver is grouped into a couple of patterns from the mechanism of lipid accumulation or metabolism of lipoprotein in the liver. Ethionine is a typical example which induces first pattern of fatty liver. It inhibits RNA and protein synthesis and destructs polysome of the liver cell. Fatty liver is induced by inhibition of the protein synthesis and disturbance of lipoprotein secretion.
# Usually, fatty liver is closely related to the accumulation of triglyceride in the liver. In the present example, the degree of fatty liver and protective or therapeutic effect against the fatty liver was evaluated by measurement of triglyceride content in the liver. Methods:
# The compounds of this invention and methionine were independently dissolved or suspended into olive oil and administered orally to 4 week-old male mouse (dd-strain) at the dose of 250 mg/kg. One hour before it, simultaneously to it, or one hour after it, ethionine dissolved in equimolar NaOH solution was administered intraperitoneally at the dose of 200 mg/kg. Twenty four hours after the administration of ethionine, the animals were sacrificed and triglyceride content in the liver was determined by chromotropic acid method.
# [3] = tested on: fatty liver induced by carbon tetrachloride; assay: Therapeutic Effect on Fatty Liver (carbon tetrachloride); type: in vivo, rats (SD strain); conditions: 10 days; for Degree of fatty liver (histopathological examination): one symbol per animal
# Protocol: Methods: […] The treated animals were left for 3 days after the last administration to maximize the manifestation of fatty liver. […] It was orally given everyday for 10 days at the dose of 50 or 250 mg/kg. On the 11th day, the animals were sacrificed. The therapeutic effect was evaluated by determining the content of liquid in the liver (triglyceride and total lipid) and examining the histopathological changes. Triglyceride and total lipid were determined colorimetrically by chromotropic acid method and Bragdon's oxidation method, respectively. Indices for the histopathological change is as follows: […]
# bile flow = assay: Cholagogic Action: effect on bile flow; type: in vivo, rats (SD-JCL strain); conditions: 200 mg/kg oral; for Bile flow: before treatment = 100
# Protocol: (§1) Drugs as choleresis are used for patients to improve bile flow. In the present example, the effect of the compound of the invention on the quantities of bile and biliary salt is investigated. Methods:
# (§2) The male rats (4 week-aged, SD-JCL strain) were anesthetized with sodium pentobarbital (37.5 mg/kg, intraperitoneal injection). The abdominal cavity was opened through a midline incision. The common bile duct was catheterized with polyethylene tube o.d. 0.8 mm. The catheter was brought to the outside through the abdominal incision would prior to closing. Bile was collected from the catheter continuously with time intervals of one hour. The quantity of bile produced in one hour was determined by weighing and that of biliary salt was determined by enzymatic method (Ikagaku Jikkenho Koza 1B, Biological Constituents II, edited by Tamio YAMAKAWA). The amount of biliary salt was represented in the term of cholic acid equivalent.
# (§3) In the representation of the results, the quantities of bile and biliary salt produced in one hour prior to the administration of drug were taken as 100. The compound of this invention was orally administered at the dose of 200 mg/kg. As reference, anethol trithion was used.
# [4] = tested on: excretion of biliary salt; assay: Cholagogic Action: effect on the excretion of biliary salt; type: in vivo, rats (SD-JCL strain); conditions: 200 mg/kg oral; for Excretion of biliary salt: before treatment = 100
# Protocol: as §1, §2, §3
# [5] = tested on: alcohol metabolic function of liver; assay: Effect on Concentration of Ethyl alcohol in the Blood; type: in vivo, mice; conditions: 250 mg/kg oral, 6 h before ethyl alcohol 1,000 mg/kg
# Protocol: After 6 hours, 1,000 mg/kg of ethyl alcohol was given orally. Blood was taken in a capillary from caudal vein at the time indicated in the results. The plasma was obtained by centrifugation. The concentration of ethyl alcohol in the plasma was measured by FID type gas liquid chromatography. Five mice were used for each group.
# glucose metabolism [6] = assay: Effect on glucose metabolism; type: in vivo, mice; conditions: 250 mg/kg oral, 6 h before glucose 4.0 g/kg
# Protocol: The test compounds dissolved in olive oil and administered orally at the dose of 250 mg/kg to the mice. After 6 hours, 4.0 g/kg of glucose was orally administered. The same amount of glucose was given to the control animals. 0.02 ml of blood was taken from caudal vein of the mice at 30, 60, 90 and 120 min. after glucose administration. Blood sugar was measured by the procedure of Somogyi-Nelson. Number of animals used was 5 to 6 mice for each treatment.
# glucose metabolism [7] = assay: Effect on glucose metabolism; type: in vivo, mice; conditions: 250 mg/kg oral, 6 h before glucose 4.0 g/kg; 0 min
smiles,measurement,setting,value
"CCOC(=O)C(C(=O)OCC)=C1SCC(O)S1 (stereo not drawn) [Compound 1, Diethyl 4-hydroxy-1,3-dithiolan-2-ylidene malonate]",Liver damage index,"[1]; 6 h before CCl4 (0.05 ml/kg oral), score 0 Normal, 2 slight, 4 clear, 6 heavy damage",0.5
same,p-GPT (plasma glutamic-pyruvic transaminase activity),"[1]; 6 h before CCl4, 24 h after CCl4, values over 1,000 regarded as 1,000",66 Karmen units
same,Triglyceride,[2]; compound 1 hr after ethionine,11.8 ± 0.72 mg/g-liver
same,Triglyceride,[2]; compound 1 hr before ethionine (200 mg/kg i.p.),12.3 ± 0.82 mg/g-liver
same,Triglyceride,[2]; simultaneous with ethionine (0 hr),7.1 ± 0.24 mg/g-liver
same,Total lipid,[3]; 50 mg/kg oral,80.2 ± 9.8 mg/g-liver
same,Triglyceride,[3]; 50 mg/kg oral,36.2 ± 7.8 mg/g-liver
same,Degree of fatty liver (histopathological examination),[3]; 50 mg/kg oral,± + ± ± ± ± +
same,Total lipid,[3]; 250 mg/kg oral,70.3 ± 10.2 mg/g-liver
same,Triglyceride,[3]; 250 mg/kg oral,24.9 ± 8.2 mg/g-liver
same,Degree of fatty liver (histopathological examination),[3]; 250 mg/kg oral,± ± - - ± ± ±
same,Bile flow,bile flow; 1 hour after treatment,110 ± 1.8
same,Bile flow,bile flow; 2 hours after treatment,115 ± 6.8
same,Bile flow,bile flow; 3 hours after treatment,105 ± 6.2
same,Bile flow,bile flow; 4 hours after treatment,98 ± 8.2
same,Quantity of total excreted bile relative to control,bile flow; 5 hours after administration,1.10 times
same,Bile flow,bile flow; 5 hours after treatment,80 ± 6.8
same,Excretion of biliary salt,[4]; 1 hour after treatment,103 ± 6.8
same,Excretion of biliary salt,[4]; 2 hours after treatment,102 ± 6.6
same,Excretion of biliary salt,[4]; 3 hours after treatment,100 ± 5.8
same,Excretion of biliary salt,[4]; 4 hours after treatment,95 ± 7.7
same,Amount of total excreted biliary salts relative to control,[4]; 5 hours after administration,1.40 times
same,Excretion of biliary salt,[4]; 5 hours after treatment,86 ± 5.2
same,Concentration of Ethyl alcohol in Plasma,[5]; 0 min,12±3 ppm
same,Concentration of Ethyl alcohol in Plasma,[5]; 5 min,732±102 ppm
same,Concentration of Ethyl alcohol in Plasma,[5]; 15 min,710±88 ppm
same,Concentration of Ethyl alcohol in Plasma,[5]; 30 min,455±112 ppm
same,Concentration of Ethyl alcohol in Plasma,[5]; 60 min,12±7 ppm
same,Blood Sugar,glucose metabolism [6]; 30 min,260 ± 20.4 mg/dL
same,Blood Sugar,glucose metabolism [6]; 60 min,228 ± 15.2 mg/dL
same,Blood Sugar,glucose metabolism [6]; 90 min,188 ± 11.3 mg/dL
same,Blood Sugar,glucose metabolism [6]; 120 min,132 ± 10.4 mg/dL
same,Blood Sugar,glucose metabolism [7],138 ± 18.2 mg/dL
